Target: T1, PD-1/PD-L1 (Homo sapiens, UniProt Q9NZQ7)
T1 construct: made in house; host or cells: HEK293T
Experiment: PD-1/PD-L1 Homogenous Time-Resolved Fluorescence (HTRF) binding assay
Conditions: PD-L1-His 10 nM, PD-1-Ig 20 nM; numeric IC50; read-out: Range or IC50
Summary of the method: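 Binding measured in dPBS with 0.1% BSA and 0.05% Tween-20, detected by HTRF with europium cryptate anti-Ig (1 nM final) and APC anti-His (20 nM final) added over the binding reaction. Counter-assays used human PD-1-Ig/PD-L2-His (20 and 5 nM) and CD80-His/PD-L1-Ig (100 and 10 nM).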

T1 sequence (Q9NZQ7 with tags, fused parts or gaps): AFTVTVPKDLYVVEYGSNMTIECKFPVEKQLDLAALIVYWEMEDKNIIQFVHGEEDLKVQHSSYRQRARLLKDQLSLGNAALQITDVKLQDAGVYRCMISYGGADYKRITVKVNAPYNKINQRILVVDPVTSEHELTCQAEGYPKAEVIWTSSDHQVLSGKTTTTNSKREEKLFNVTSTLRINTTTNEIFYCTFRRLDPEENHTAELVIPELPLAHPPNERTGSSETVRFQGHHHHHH

SMILES | IC50
Cc1c(COc2cc(OCc3cncc(C#N)c3)c(CN3CCCC[C@H]3C(=O)O)cc2Cl)cccc1-c1cccc(OCCCNC[C@H](O)CO)c1Cl [Example 2007, (S)-1-(5-chloro-4-((2′-chloro-3′-(3-(((S)-2,3-dihydroxypropyl)amino)propoxy)-2-methyl-[1,1′-biphenyl]-3-yl)methoxy)-2-((5-cyanopyridin-3-yl)methoxy)benzyl)piperidine-2-carboxylic Acid] | 0.88 nM

Same assay, conditions: PD-L1-His 10 nM, PD-1-Ig 20 nM; value given as range class; read-out: Range or IC50

SMILES | IC50
COC(=O)[C@@H]1C[C@@H](O)CN1CCCOc1cccc(-c2cccc(COc3cc(OCc4cncc(S(C)(=O)=O)c4)c(CN[C@](C)(CO)C(=O)O)cc3Cl)c2C)c1Cl [Example 1068, (R)-2-((5-chloro-4-((2′-chloro-3′-(3-((2S,4R)-4-hydroxy-2-(methoxycarbonyl)pyrrolidin-1-yl)propoxy)-2-methyl-[1,1′-biphenyl]-3-yl)methoxy)-2-((5-(methylsulfonyl)pyridin-3-yl)methoxy)benzyl)amino)-3-hydroxy-2-methylpropanoic Acid] | 0.21 to 10 nM
Cc1c(COc2cc(OCc3cncc(C#N)c3)c(CNC[C@H](O)CO)cc2Cl)cccc1-c1cccc(OCCCNC[C@H](O)CO)c1Cl [Example 2003, 5-((4-chloro-5-((2′-chloro-3′-(3-(((S)-2,3-dihydroxypropyl)amino)propoxy)-2-methyl-[1,1′-biphenyl]-3-yl)methoxy)-2-((((S)-2,3-dihydroxypropyl)amino)methyl)phenoxy)methyl)nicotinonitrile] | 0.21 to 10 nM
Cc1c(COc2cc(O)c(CO)cc2Cl)cccc1-c1cccc(OCCCN2CCCCC2)c1Cl [Example 2017, 4-chloro-5-((2′-chloro-2-methyl-3′-(3-(piperidin-1-yl)propoxy)-[1,1′-biphenyl]-3-yl)methoxy)-2-(hydroxymethyl)phenol] | 10 to 100 nM
Cc1c(COc2cc(OCc3cncc(S(C)(=O)=O)c3)c(CN3CCCC[C@H]3C(=O)O)cc2Cl)cccc1-c1cccc(OCCCN2CC[C@@H](C(=O)O)C2)c1C [Example 1084, (S)-1-(4-((3′-(3-((R)-3-carboxypyrrolidin-1-yl)propoxy)-2,2′-dimethyl-[1,1′-biphenyl]-3-yl)methoxy)-5-chloro-2-((5-(methylsulfonyl)pyridin-3-yl)methoxy)benzyl)piperidine-2-carboxylic Acid] | 0.21 to 10 nM
Cc1c(COc2cc(OCc3cncc(C#N)c3)c(CN(CC3CC3)C(C)(CO)CO)cc2Cl)cccc1-c1cccc(OCCCN2CC[C@@H](O)C2)c1Cl [Example 2114, (R)-5-((4-chloro-5-((2′-chloro-3′-(3-(3-hydroxypyrrolidin-1-yl)propoxy)-2-methyl-[1,1′-biphenyl]-3-yl)methoxy)-2-(((cyclopropylmethyl)(1,3-dihydroxy-2-methylpropan-2-yl)amino)methyl)phenoxy)methyl)nicotinonitrile] | 0.21 to 10 nM
Cc1c(COc2cc(OCc3cncc(C#N)c3)c(CN3CCC[C@H](C(=O)O)C3)cc2Cl)cccc1-c1cccc(OCCCN2CCC[C@H](C(=O)O)C2)c1C [Example 2259, (3S)-1-(3-(3′-((4-(((S)-3-carboxypiperidin-1-yl)methyl)-2-chloro-5-((5-cyanopyridin-3-yl)methoxy)phenoxy)methyl)-2,2′-dimethylbiphenyl-3-yloxy)propyl)piperidine-3-carboxylic Acid] | 0.21 to 10 nM
Cc1c(COc2cc(OCc3cncc(C#N)c3)c(CN[C@](C)(CO)C(=O)O)cc2Cl)cccc1-c1cccc(OCCCN2CCC(O)(C(=O)O)CC2)c1C [Example 1037, (R)-1-(3-((3′-((4-(((2-carboxy-1-hydroxypropan-2-yl)amino)methyl)-2-chloro-5-((5-cyanopyridin-3-yl)methoxy)phenoxy)methyl)-2,2′-dimethyl-[1,1′-biphenyl]-3-yl)oxy)propyl)-4-hydroxypiperidine-4-carboxylic Acid] | 0.21 to 10 nM
Cc1ccccc1-c1cccc(COc2cc(OCc3cncc(C#N)c3)c(CN3CCCC[C@H]3C(=O)O)cc2Cl)c1C [Example 3023, (S)-1-(5-chloro-2-((5-cyanopyridin-3-yl)methoxy)-4-((2,2′-dimethyl-[1,1′-biphenyl]-3-yl)methoxy)benzyl)piperidine-2-carboxylic Acid] | 0.21 to 10 nM
COc1cc(/C=C/c2cccc(-c3cccc(OCCCN4CC[C@@H](O)C4)c3C)c2C)c(Cl)cc1CN1CCCC[C@H]1C(=O)O [Example 4517, (S)-1-(5-chloro-4-((E)-2-(3′-(3-((R)-3-hydroxypyrrolidin-1-yl)propoxy)-2,2′-dimethyl-[1,1′-biphenyl]-3-yl)vinyl)-2-methoxybenzyl)piperidine-2-carboxylic Acid] | 0.21 to 10 nM
C=CC(=O)NCCCOc1cccc(-c2cccc(COc3cc(OCc4cncc(C#N)c4)c(CN[C@H](CO)C(=O)O)cc3Cl)c2C)c1 [Example 1021, (R)-2-((4-((3′-(3-acrylamidopropoxy)-2-methyl-[1,1′-biphenyl]-3-yl)methoxy)-5-chloro-2-((5-cyanopyridin-3-yl)methoxy)benzyl)amino)-3-hydroxypropanoic Acid] | 0.21 to 10 nM
Cc1ccc(OCCCN2CC[C@@H](O)C2)cc1-c1cccc(COc2cc(OCc3cncc(C#N)c3)c(CN3CCCC[C@H]3C(=O)O)cc2Cl)c1C [Example 1528, (S)-1-(5-chloro-2-((5-cyanopyridin-3-yl)methoxy)-4-((5′-(3-((R)-3-hydroxypyrrolidin-1-yl)propoxy)-2,2′-dimethyl-[1,1′-biphenyl]-3-yl)methoxy)benzyl)piperidine-2-carboxylic acid] | 0.21 to 10 nM
Cc1cc(OCc2cccc(-c3cccc(OCCCN4CC[C@@H](O)C4)c3C)c2C)cc(OCc2cncc(C#N)c2)c1CN[C@@](C)(CO)C(=O)O [Example 4091, (S)-2-((2-((5-cyanopyridin-3-yl)methoxy)-4-((3′-(3-((R)-3-hydroxypyrrolidin-1-yl)propoxy)-2,2′-dimethyl-[1,1′-biphenyl]-3-yl)methoxy)-6-methylbenzyl)amino)-3-hydroxy-2-methylpropanoic Acid] | 0.21 to 10 nM
Cc1c(COc2cc(OCc3cncc(C#N)c3)c(CN[C@@](C)(CO)C(=O)O)cc2Cl)cccc1-c1cccc(O[C@H](C)CCN2CC[C@@H](O)C2)c1C [Example 1525, (S)-2-((5-chloro-2-((5-cyanopyridin-3-yl)methoxy)-4-((3′-(((R)-4-((R)-3-hydroxypyrrolidin-1-yl)butan-2-yl)oxy)-2,2′-dimethyl-[1,1′-biphenyl]-3-yl)methoxy)benzyl)amino)-3-hydroxy-2-methylpropanoic acid] | 0.21 to 10 nM
Cc1c(COc2cc(OCc3cncc(C#N)c3)c(CN3CCCC[C@H]3C(=O)O)cc2Cl)cccc1-c1cccc(OCCCN2CCCCC2CO)c1C (stereo partly drawn) [Example 2202, (2S)-1-(5-chloro-2-((5-cyanopyridin-3-yl)methoxy)-4-((3′-(3-(2-(hydroxymethyl)piperidin-1-yl)propoxy)-2,2′-dimethylbiphenyl-3-yl)methoxy)benzyl)piperidine-2-carboxylic Acid] | 0.21 to 10 nM
CC(=O)N[C@@H]1CCN(CCCOc2cccc(-c3cccc(COc4cc(OCc5cncc(C#N)c5)c(CNC(C)(CO)CO)cc4Cl)c3C)c2C)C1 [Example 2290, (R)—N-(1-(3-((3′-((2-chloro-5-((5-cyanopyridin-3-yl)methoxy)-4-(((1,3-dihydroxy-2-methylpropan-2-yl)amino)methyl)phenoxy)methyl)-2,2′-dimethyl-[1,1′-biphenyl]-3-yl)oxy)propyl)pyrrolidin-3-yl)acetamide] | 0.21 to 10 nM

From patent US10745382B2 (BRISTOL-MYERS SQUIBB COMPANY, priority 2015, dated 2020)
